Tested on: 885724-159-R-J1-PDC complex spheroid viability
Assay: Anticancer human tumor 885724-159-R-J1-PDC patient-derived pancreatic adenocarcinoma cell line growth inhibition [GQUAD]
Conditions: for IC50: curve of first compound; for viability, T/C: stronger effect = lower value
Method in brief: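 Multi-cell-type spheroids of tumor cells with HUVEC and mesenchymal stem cells, treated with drug combinations. Concentrations descend in half-log steps from near clinical Cmax, or from 10 microM where Cmax is unknown; viability read-out.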

[1] = second compound 0.0316 µM, first compound 0.0316 µM
[2] = second compound 0.0316 µM, first compound 0.1 µM
[3] = second compound 0.0316 µM, first compound 0.316 µM
[4] = second compound 0.0316 µM, first compound 1 µM
[5] = second compound 0.0316 µM, first compound 3.16 µM
[6] = second compound 0.0316 µM, first compound 10 µM
[7] = second compound 0.1 µM, first compound 0.0316 µM
[8] = second compound 0.1 µM, first compound 0.1 µM
[9] = second compound 0.1 µM, first compound 0.316 µM
[10] = second compound 0.1 µM, first compound 1 µM
[11] = second compound 0.1 µM, first compound 3.16 µM
[12] = second compound 0.1 µM, first compound 10 µM
[13] = second compound 0.316 µM, first compound 0.0316 µM
[14] = second compound 0.316 µM, first compound 0.1 µM
[15] = second compound 0.316 µM, first compound 0.316 µM
[16] = second compound 0.316 µM, first compound 1 µM
[17] = second compound 0.316 µM, first compound 3.16 µM
[18] = second compound 0.316 µM, first compound 10 µM
[19] = second compound 1 µM, first compound 0.0316 µM
[20] = second compound 1 µM, first compound 0.1 µM
[21] = second compound 1 µM, first compound 0.316 µM
[22] = second compound 1 µM, first compound 1 µM
[23] = second compound 1 µM, first compound 3.16 µM
[24] = second compound 1 µM, first compound 10 µM
[25] = second compound 3.16 µM, first compound 0.0316 µM
[26] = second compound 3.16 µM, first compound 0.1 µM
[27] = second compound 3.16 µM, first compound 0.316 µM
[28] = second compound 3.16 µM, first compound 1 µM
[29] = second compound 3.16 µM, first compound 3.16 µM
[30] = second compound 3.16 µM, first compound 10 µM
[31] = second compound 10 µM, first compound 0.0316 µM
[32] = second compound 10 µM, first compound 0.1 µM
[33] = second compound 10 µM, first compound 0.316 µM
[34] = second compound 10 µM, first compound 1 µM
[35] = second compound 10 µM, first compound 3.16 µM
[36] = second compound 10 µM, first compound 10 µM
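Also: spheroids exposed to agents for seven days before readout.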
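For viability, T/C in this document: percent of vehicle control viability where 100% = DMSO wells.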

Compound: O=C(c1cc(Cc2n[nH]c(=O)c3ccccc23)ccc1F)N1CCN(C(=O)C2CC2)CC1 + CN(C)c1ccc(Nc2c3ccc(NC(=O)CCN4CCCC4)cc3nc3cc(NC(=O)CCN4CCCC4)ccc23)cc1
- IC50 (second compound 0.0316 µM): > 10 µM
- IC50 (second compound 0.1 µM): > 10 µM
- IC50 (second compound 0.316 µM): > 10 µM
- IC50 (second compound 1 µM): > 10 µM
- IC50 (second compound 3.16 µM): > 10 µM
- IC50 (second compound 10 µM): > 10 µM
- viability, T/C [1]: 117%
- viability, T/C [2]: 93.1%
- viability, T/C [3]: 89.7%
- viability, T/C [4]: 92.4%
- viability, T/C [5]: 95.3%
- viability, T/C [6]: 88.8%
- viability, T/C [7]: 101%
- viability, T/C [8]: 100%
- viability, T/C [9]: 103%
- viability, T/C [10]: 106%
- viability, T/C [11]: 85.3%
- viability, T/C [12]: 72.5%
- viability, T/C [13]: 90.6%
- viability, T/C [14]: 88.1%
- viability, T/C [15]: 105%
- viability, T/C [16]: 93.5%
- viability, T/C [17]: 97.1%
- viability, T/C [18]: 80%
- viability, T/C [19]: 83.3%
- viability, T/C [20]: 80%
- viability, T/C [21]: 87%
- viability, T/C [22]: 73.3%
- viability, T/C [23]: 76.7%
- viability, T/C [24]: 63.8%
- viability, T/C [25]: 79.4%
- viability, T/C [26]: 65.2%
- viability, T/C [27]: 84.4%
- viability, T/C [28]: 73.2%
- viability, T/C [29]: 70.5%
- viability, T/C [30]: 69.5%
- viability, T/C [31]: 72.1%
- viability, T/C [32]: 74.2%
- viability, T/C [33]: 69.9%
- viability, T/C [34]: 75.9%
- viability, T/C [35]: 90.1%
- viability, T/C [36]: 69.6%

Compound: CC(=O)O[C@H]1C(=O)[C@@]2(C)[C@H]([C@H](OC(=O)c3ccccc3)[C@]3(O)C[C@H](OC(=O)[C@H](O)[C@@H](NC(=O)c4ccccc4)c4ccccc4)C(C)=C1C3(C)C)[C@]1(OC(C)=O)CO[C@@H]1C[C@@H]2O + Cc1cnc(CNC(=O)c2c(=O)c3ccc(N4CCCN(C)CC4)nc3n3c2sc2ccccc23)cn1
- IC50 (second compound 0.0316 µM): > 10 µM
- IC50 (second compound 0.1 µM): > 10 µM
- IC50 (second compound 0.316 µM): > 10 µM
- IC50 (second compound 1 µM): > 10 µM
- IC50 (second compound 3.16 µM): > 10 µM
- IC50 (second compound 10 µM): > 10 µM
- viability, T/C [1]: 103%
- viability, T/C [2]: 97.3%
- viability, T/C [3]: 96.9%
- viability, T/C [4]: 108%
- viability, T/C [5]: 104%
- viability, T/C [6]: 107%
- viability, T/C [7]: 111%
- viability, T/C [8]: 105%
- viability, T/C [9]: 99.3%
- viability, T/C [10]: 119%
- viability, T/C [11]: 113%
- viability, T/C [12]: 108%
- viability, T/C [13]: 110%
- viability, T/C [14]: 114%
- viability, T/C [15]: 107%
- viability, T/C [16]: 88.7%
- viability, T/C [17]: 118%
- viability, T/C [18]: 105%
- viability, T/C [19]: 95.9%
- viability, T/C [20]: 93.3%
- viability, T/C [21]: 98.9%
- viability, T/C [22]: 93.6%
- viability, T/C [23]: 106%
- viability, T/C [24]: 86%
- viability, T/C [25]: 77%
- viability, T/C [26]: 78.6%
- viability, T/C [27]: 84.9%
- viability, T/C [28]: 79.5%
- viability, T/C [29]: 88.8%
- viability, T/C [30]: 99.6%
- viability, T/C [31]: 66%
- viability, T/C [32]: 68.7%
- viability, T/C [33]: 78.4%
- viability, T/C [34]: 78.8%
- viability, T/C [35]: 74.1%
- viability, T/C [36]: 70.1%

Compound: COc1cc(C2c3cc4c(cc3C(OC3OC5COC(C)OC5C(O)C3O)C3COC(=O)C23)OCO4)cc(OC)c1O (stereo unspecified) + Cc1[nH]c2ccc(F)cc2c1-c1nc2c3cccnc3c3ncccc3c2[nH]1
- IC50 (second compound 0.0316 µM): > 10 µM
- IC50 (second compound 0.1 µM): > 10 µM
- IC50 (second compound 0.316 µM): > 10 µM
- IC50 (second compound 1 µM): > 10 µM
- IC50 (second compound 3.16 µM): < 0.0316 µM
- IC50 (second compound 10 µM): > 10 µM
- viability, T/C [1]: 92.8%
- viability, T/C [2]: 88.7%
- viability, T/C [3]: 93.8%
- viability, T/C [4]: 94.9%
- viability, T/C [5]: 79.2%
- viability, T/C [6]: 88.5%
- viability, T/C [7]: 102%
- viability, T/C [8]: 117%
- viability, T/C [9]: 93.1%
- viability, T/C [10]: 103%
- viability, T/C [11]: 80.2%
- viability, T/C [12]: 80.2%
- viability, T/C [13]: 103%
- viability, T/C [14]: 87.2%
- viability, T/C [15]: 80.7%
- viability, T/C [16]: 83.2%
- viability, T/C [17]: 79.7%
- viability, T/C [18]: 72.3%
- viability, T/C [19]: 89.5%
- viability, T/C [20]: 69.8%
- viability, T/C [21]: 75%
- viability, T/C [22]: 69.1%
- viability, T/C [23]: 77.8%
- viability, T/C [24]: 61%
- viability, T/C [25]: 53.2%
- viability, T/C [26]: 32.2%
- viability, T/C [27]: 45.4%
- viability, T/C [28]: 43.7%
- viability, T/C [29]: 35.8%
- viability, T/C [30]: 26.5%
- viability, T/C [31]: 68.3%
- viability, T/C [32]: 69.3%
- viability, T/C [33]: 70.9%
- viability, T/C [34]: 68%
- viability, T/C [35]: 70.6%
- viability, T/C [36]: 55.4%

From PubChem BioAssay AID2060502 (Molecular Pharmacology Branch, DTP, NCI, 2025)
